Among the data in ChEMBL document CHEMBL1154198, “Chemical genetics of Plasmodium falciparum” (Nature, 2010) are EC50 values, retold here.

Some results are limits rather than exact numbers.

Test [1] deals with Plasmodium falciparum. Description: ST_JUDE: Plasmodium falciparum K1 EC50 (uM) as measured by SYBR green dye. Type of test: functional, organism-based.
In test [2] the test system is Plasmodium falciparum. Description: ST_JUDE: Plasmodium falciparum 3D7 EC50 (uM) as measured by SYBR green dye. The format is functional, organism-based.

As usually defined, the EC50 is the concentration at which the effect is half-maximal. Low readings indicate greater potency, high ones weaker potency. Take `CC(=O)NC1=C(Cl)C(=O)c2ccccc2C1=O`: the EC50 in test [1] is 2.21 µM; in test [2], 4.04 µM.
As to `O=C(Nc1cccc(Cl)c1)c1cc2ccccc2cc1O`, the half-maximal effective concentration (EC50) in test [1] is 0.568 µM; in test [2], greater than 15 µM.
The matching figures for `Cc1cccnc1Nc1nc(-c2ccccn2)cs1`: 1.32 µM and 1.84 µM.
Take `O=C(c1ccc(Cl)cc1Cl)N1CCCC(C(F)(F)F)C1` (stereo unspecified): the EC50 was greater than 15 µM in test [1] and 1.46 µM in test [2].
As for `CCC(=O)NC(c1ccco1)c1cc(Cl)c2cccnc2c1O` (stereo unspecified), the EC50 is 2.69 µM in test [1] and greater than 15 µM in test [2].
For the compound `CN(C)c1ccc(C2N(C)c3ccccc3N2C)cc1`, the EC50 was 4.44 µM in test [1] and 4.27 µM in test [2].
For the compound `CCOC(=O)c1ccc(NC2=C(N3CCCCC3)C(=O)c3ccccc3C2=O)cc1`, the figures for the EC50 in test [1] and in test [2] were 0.111 µM and 0.0422 µM, respectively.
In the case of `CC(C)C(=O)N1CCOc2c(cc(-c3csc4ccccc34)cc2OCCc2ccccn2)C1`, the EC50 was 4.48 µM in test [1] and greater than 15 µM in test [2].
`CC(C)(C)c1ccc(-c2cc(-c3cc(Cl)ccc3O)[nH]n2)cc1`: the figures for the EC50 in test [1] and in test [2] were 1.34 µM and 4.23 µM, respectively.
The matching figures for `CCN(CC)CCNC(=O)c1ccc(Cn2c(SCc3cccc(C)c3)nc3ccncc32)cc1`: greater than 15 µM and 6.75 µM.
The matching figures for `Cc1cccc(/C=C/c2ccc3cccc(O)c3n2)c1O`: 1.33 µM and 4.68 µM.
The matching figures for `CCOc1ccc(-c2nonc2NC(=O)c2ccccc2C)cc1OCC`: 1.38 µM and greater than 15 µM.
For the compound `Cc1ccc(O)c(Nc2nc(-c3ccccc3)nc3ccccc23)c1`, the results for the EC50 in test [1] and in test [2] were 1.31 µM and 3.83 µM, respectively.
In the case of `CCCc1cc(O)nc(-n2nc(C)cc2NC(=O)c2ccccc2F)n1`, the EC50 in test [1] and in test [2] was greater than 15 µM in each case.
As for `CCCC(=O)NC(Nc1ccc(S(=O)(=O)Nc2cc(C)on2)cc1)(C(=O)OCC)C(F)(F)F` (stereo unspecified), the results for the EC50 in test [1] and in test [2] were 5.22 µM and 1.85 µM, respectively.
In the case of `O=C(NCCN1CCOCC1)C(=O)Nc1ccc(F)cc1F`, the EC50 in test [1] and in test [2] was greater than 15 µM each time.
`CCc1ccccc1Nc1nc(-c2cccnc2)cs1`: the concentration for a half-maximal effect (EC50) in test [1] and in test [2] was greater than 15 µM in each case.
For `COc1cc(NC(=O)COc2cc(C)c(Cl)c(C)c2)cc(OC)c1`, the EC50 in test [1] and in test [2] was greater than 15 µM in each case.
With `CCc1ccc(CNCC(O)c2ccccc2)cc1` (stereo unspecified), the EC50 in test [1] came to 1.37 µM; in test [2], 2.17 µM.
The matching figures for `COc1ccccc1CNC(=O)C1c2ccccc2C(=O)N(CC(C)C)C1c1cccs1` (stereo unspecified): 3.7 µM and 3.16 µM.
Take `CCN(CC)CCn1c(=N)n(CC(O)COc2ccc(Cl)cc2Cl)c2ccccc21` (stereo unspecified): the EC50 was found to be 2.88 µM in test [1] and 0.954 µM in test [2].
With `Oc1cccc2ccc(/C=C/c3ccccc3Br)nc12`, the 50% effective concentration (EC50) in test [1] was 9.71 µM; in test [2], greater than 15 µM.
The matching figures for `Cc1ccc(S(=O)(=O)Nc2cc(Sc3nc[nH]n3)c(O)c3ccccc23)c(C)c1`: 5.53 µM and 3.67 µM.
For `CC(C)(CO)CN1CCC(C(=O)Nc2ccc(-c3nc4ccccc4[nH]3)cc2)CC1`, the figures for the EC50 in test [1] and in test [2] were greater than 15 µM and 6.81 µM, respectively.
Take `CC1CCN(CCCNc2cc(NCCO)c([N+](=O)[O-])c3nonc23)CC1`: the EC50 in test [1] and in test [2] was greater than 15 µM in each case.
Turning to `CCCc1cc(O)nc(-n2nc(C)cc2NC(=O)COc2ccc(OC)cc2)n1`, the EC50 in test [1] and in test [2] was greater than 15 µM each time.
Consider `COc1ccc(C2C(C#N)=C(C(C)(C)C)Nc3ncnn32)cc1` (stereo unspecified), for which the EC50 in test [1] was greater than 15 µM; in test [2] it was 8.08 µM.
The matching figures for `COc1ccc(C(=O)NC(Nc2ccc(Cl)cc2)C(Cl)(Cl)Cl)cc1OC` (stereo unspecified): 1.86 µM and 1.53 µM.
Regarding `CCOC(=O)c1c(NC(=O)C(c2ccccc2)c2ccccc2)sc(C(=O)N(CC)CC)c1C`, the EC50 in test [1] and in test [2] was greater than 15 µM in each case.
In the case of `Oc1c(C(Nc2ccccn2)c2ccc(Cl)cc2)ccc2cccnc12` (stereo unspecified), the EC50 in test [1] is 4.11 µM; in test [2], 2.72 µM.
Turning to `CCOc1cc(Br)c(C2NC(=O)NC(c3ccccc3)=C2C(C)=O)cc1OCC` (stereo unspecified), the figures for the EC50 in test [1] and in test [2] were greater than 15 µM and 1.51 µM, respectively.
The matching figures for `Cc1ccn2c(Nc3ccccc3)c(-c3ccccn3)nc2c1`: greater than 15 µM and greater than 15 µM.
Regarding `CCCCCCCCn1cnc2ccccc21`, the EC50 in test [1] and in test [2] was greater than 15 µM throughout.
Regarding `CSc1ccc(C2CC(=O)NC3=C2C(=O)CC(c2ccccc2Cl)C3)cc1` (stereo unspecified), the values for the EC50 in test [1] and in test [2] were 1.17 µM and 2.21 µM, respectively.
`COc1ccccc1N1CCN(Cc2cc(COC(C)C)c3cccnc3c2O)CC1`: the EC50 is greater than 15 µM in test [1] and 5.28 µM in test [2].
For `Cc1c(N)cc[n+](CC(=O)c2ccccc2)c1C`, the concentration giving a half-maximal response (EC50) in test [1] is 5.97 µM; in test [2], greater than 15 µM.
Take `COc1ccc(Cn2c(SCc3ccccc3F)nc3nccnc3c2=O)cc1`: the results for the EC50 in test [1] and in test [2] were 11.7 µM and 0.344 µM, respectively.
The matching figures for `CC(C)C(=O)NC(c1ccc(Cl)cc1Cl)c1ccc2cccnc2c1O` (stereo unspecified): 4.6 µM and 3.65 µM.
In the case of `COc1ccc(Cl)c2sc(N(Cc3cccnc3)C(=O)c3ccc(S(C)(=O)=O)cc3)nc12`, the EC50 in test [1] and in test [2] was greater than 15 µM in each case.
On to `O=C(Nc1nc(-c2ccccn2)cs1)c1ccccc1[N+](=O)[O-]`, for which the results for the EC50 in test [1] and in test [2] were 6.94 µM and 4.99 µM, respectively.
Turning to `CCC[N+]12CCC(CC1)C(C(=O)c1cccs1)C2` (stereo unspecified), the EC50 in test [1] and in test [2] was greater than 15 µM throughout.
In the case of `COc1ccc(OC)c(N2C(=O)c3cccc4c([N+](=O)[O-])ccc(c34)C2=O)c1`, the EC50 in test [1] and in test [2] was greater than 15 µM each time.
Regarding `Cc1ccc2c(c1)-c1c(cnn1CC(=O)Nc1cccc(C#N)c1)CO2`, the EC50 in test [1] was 5.38 µM; in test [2], greater than 15 µM.
As to `CCN(CC)CCCC(C)Nc1nc(C)nc2cc(Cl)ccc12` (stereo unspecified), the figures for the EC50 in test [1] and in test [2] were greater than 15 µM and 6.6 µM, respectively.
The matching figures for `O=C(Nc1ccc(Cl)cc1)Nc1cc(Cl)cc(Cl)c1`: 1.63 µM and 3.21 µM.
`C=CCN1C(=O)c2[nH]nc(-c3c(C)cc(C)cc3O)c2C1c1ccc(OC)cc1` (stereo unspecified): the EC50 is 1.45 µM in test [1] and 2.07 µM in test [2].
For the compound `COCCCn1c(=N)c(C(=O)NCc2cccnc2)cc2c(=O)n3cccc(C)c3nc21`, the EC50 in test [1] and in test [2] was greater than 15 µM each time.
For `O=C(Nc1ccc(F)cc1)C1c2ccccc2C(=O)N(C2CCCC2)C1c1cccs1` (stereo unspecified), the values for the EC50 in test [1] and in test [2] were 0.975 µM and 0.808 µM, respectively.
In the case of `COc1ccc(N(CC(=O)Nc2cccc(C(F)(F)F)c2)S(C)(=O)=O)cc1`, the EC50 in test [1] and in test [2] was greater than 15 µM throughout.
As for `Cc1ccc(OCC(=O)Nc2cc(C)nn2-c2nc(C)cc(O)n2)cc1`, the EC50 in test [1] and in test [2] was greater than 15 µM throughout.
`COc1cccc(C2=C(C(C)=O)Sc3nnc(C)n3N2C(C)=O)c1`: the concentration for a half-maximal effect (EC50) in test [1] was 5.95 µM; in test [2], 6.59 µM.
Regarding `CCc1nnc(NC(=O)CCCOc2ccc(Cl)cc2)s1`, the EC50 in test [1] and in test [2] was greater than 15 µM in each case.
For the compound `CCOC(=O)N1CCN(C(=O)CN(Cc2ccc(Cl)cc2)S(=O)(=O)c2ccc(C)cc2)CC1`, the figures for the EC50 in test [1] and in test [2] were 1.32 µM and 2.53 µM, respectively.
In the case of `CS(=O)(=O)N(Cc1ccccc1)c1ccccc1C(=O)Nc1cc(Cl)ccc1Cl`, the EC50 in test [1] came out at 4.58 µM; in test [2], 6.12 µM.
The matching figures for `COc1ccc(CN2CCN(Cc3ccccc3)CC2)c(O)c1`: 0.754 µM and 1.09 µM.
Consider `COc1ccccc1C(=O)N(Cc1cccnc1)c1nc2c(F)cccc2s1`, for which the EC50 in test [1] is 9.07 µM; in test [2], greater than 15 µM.
With `CC(=O)Oc1ccc(Cl)cc1/C=C/c1cc(OC(C)=O)c2ccccc2n1`, the EC50 in test [1] is 1.5 µM; in test [2] it was greater than 15 µM.
Regarding `CN1C(=O)C(=Cc2ccc(-c3ccc([N+](=O)[O-])cc3O)o2)C(=O)N(C)C1=O`, the 50% effective concentration (EC50) in test [1] and in test [2] was greater than 15 µM each time.
Regarding `OC(CNCc1ccccc1)Cn1c2ccccc2c2ccccc21` (stereo unspecified), the EC50 in test [1] amounted to 0.81 µM; in test [2], 3.76 µM.
`O=C(CN1C2=NCCN2c2ccccc21)c1ccc(Cl)cc1Cl`: the results for the EC50 in test [1] and in test [2] were 3.65 µM and 3.28 µM, respectively.
`CCc1c(C)nc(-n2nc(C)cc2NC(=O)c2ccc(C)c(C)c2)nc1O`: the EC50 in test [1] and in test [2] was greater than 15 µM each time.
Consider `Cc1ccc2nc(-c3ccc(C)c(NC(=O)C(Cl)(Cl)Cl)c3)oc2c1`, for which the values for the EC50 in test [1] and in test [2] were 4.17 µM and greater than 15 µM, respectively.
For `COc1ccc(CCN2COc3c(cc4c(C)c(C)c(=O)oc4c3C)C2)cc1`, the EC50 turned out to be 0.802 µM in test [1] and 6.95 µM in test [2].
The matching figures for `CCOC(=O)c1ccc(NC(=O)C2CCC(C(C)(C)C)CC2)cc1` (stereo unspecified): greater than 15 µM and greater than 15 µM.
Turning to `CCSc1ccc2ccccc2[n+]1CC`, the EC50 in test [1] turned out to be 0.259 µM; in test [2], 0.416 µM.
The matching figures for `CC(C)c1ccc(Nc2c(-c3ccccn3)nc3ccccn23)cc1`: greater than 15 µM and greater than 15 µM.
The matching figures for `Cc1cc(N2CCN(C)CC2)nc2ccc(NC(=O)/C=C/c3ccccc3OC(C)C)cc12`: 5.57 µM and 3.36 µM.
In the case of `CCC(C)c1ccc(NC(=O)c2ccc(Br)o2)c(O)c1` (stereo unspecified), the EC50 came to 2.57 µM in test [1] and 1.93 µM in test [2].
The matching figures for `CCOC(=O)c1cnc2ccc(OCC)cc2c1NCCc1ccccc1`: greater than 15 µM and greater than 15 µM.
The matching figures for `CCc1ccc(N(CC)C(=O)c2cc3cc4ccc(OC)cc4nc3o2)cc1`: greater than 15 µM and greater than 15 µM.
The matching figures for `Cc1c(C=O)c2ccccc2n1CC(=O)Nc1ccc(Br)c(Cl)c1`: 0.891 µM and 0.702 µM.
Take `CC(=O)N1N=C2C3CCN(CC3)C2C1c1ccc(Br)cc1` (stereo unspecified): the EC50 in test [1] and in test [2] was greater than 15 µM in each case.
Turning to `COc1ccccc1C(=O)N(Cc1cccnc1)c1nc2c(Cl)cccc2s1`, the figures for the EC50 in test [1] and in test [2] were 6.66 µM and greater than 15 µM, respectively.
